Here are results for two compounds from US6977254B2, “Hydroxy cyclohexenyl phenyl carboxamides tocolytic oxytocin receptor antagonists” (Wyeth, priority 2001, dated 2005).

The target of the assay is T1, human vasopressin V1a receptor subtype (Homo sapiens, UniProt P37288).
T1 construct: host or cells: CHO cells, stably transfected (pZeoSV vector for the Thibonnier line); membranes
In words: Vasopressin binding in CHO cell membranes expressing human vasopressin V1a subtype receptors ([3H]Manning ligand). The text has this: Vasopressin Binding in Chinese Hamster Ovary Cell Membranes Expressing Human Vasopressin V1a Subtype Receptors
Chinese hamster ovary cells (CHO cells) stably transfected with the human vasopressin V1a subtype receptors were either obtained from Biosignal Inc., 1744 rue Williams, Montreal, Quebec, Canada or obtained from M. Thibonnier, Case Western Reserve University School of Medicine, Cleveland, Ohio.
A. Passaging and Amplification of Cells:
CHO cells transfected with the human vasopressin V1a subtype receptors obtained from M. Thibonnier (pZeoSV vector) are allowed to grow to confluency (approx. >90%) in T-150 flasks under sterile conditions, in a cell culture medium of F-12 Nutrient Mixture (HAM) with L-glutamine (Gibco Cat. #11765-054) containing 15 mM HEPES (Gibco Cat. #15630-080), 1% antibiotic/antimycotic (add 5 mL 100×, Gibco Cat. #15240-062 per 500 mL F-12), 250 μg/mL Zeocin (add 1.25 mL of 100 mg/mL Invitrogen R-250-01 per 500 mL F-12) and 10% Fetal Bovine Serum (Qualified, heat inactivated, Gibco Cat. #16140-063). The medium is removed by aspiration and the cells are washed with 10 mL of Hank's Balanced Salt solution (Gibco Cat. #14175-095). The salt solution is removed by aspiration and the cells are trypsinized with 5 mL of trypsin-EDTA (0.05% trypsin, 0.53 mM EDTA-4Na, Gibco Cat. #25300-070) for 1 min. The trypsin is removed by aspiration and the cells dislodged by tapping. Cell Culture medium (eg, 30 mL for 1:30 split) is immediately added and mixed well to inactivate trypsin. 1 mL of detached cells is added to new culture flasks containing fresh cell culture medium (eg, into 25 mL per T-150 flask), and mixed gently. The cells are incubated at 37° C. in 5% CO2. The medium is changed at 3 to 4 days interval (or as appropriate). The cells grow to confluency (approx. >75%-95%) within 7-8 days. All steps are done under sterile conditions.
The cells are washed twice gently with Hank's Balanced Salt solution (e.g,. use 10 mL per T-150 flask). The excess is removed and the cells are bathed for 15-30 min. in an enzyme-free Cell Dissociation Buffer (e.g. use 8 mL Hank's Based, Gibco Cat. #13150-016 per T-150 flask) until the cells are loosened. The contents are transferred to centrifuge tubes (50 mL size) kept in ice bath. All subsequent steps are done at 4° C. The tubes are centrifuged at 300×g for 15 min (1380 rpm on SORVAL, Model RT6000D, using rotor for 50 mL tubes). The supernatant is discarded and the cells suspended in homogeneizing buffer(10 mM Tris-HCl containing 0.25 M sucrose and 1 mM EDTA, pH 7.4) ensuring that the volume of the buffer is about ten times the volume of the cell pellet. The cells are pooled into a centrifuge tube (50 mL) and homogenized with Polytron at setting 6 for 10 sec. The homogenate is transferred into a Potter-Elvjehm homogenizer and homogenized with 3 strokes. The homogenate is centrifuged at 1500×g for 10 min at 4° C. (3100 rpm using SORVAL, model RT6000D, using rotor for 50 mL tubes). The pellet is discarded. The supernatant is centrifuged at 100,000×g for 60 min. at 4° C. (Beckman L8-80M ultracentrifuge; spin at 37,500 rpm with rotor type 70 Ti for 50 mL tubes; 38,000 rpm with type 80Ti for 15 mL tubes; or 35,800 rpm with rotor type 45Ti). The supemantant is discarded and the pellet suspended in 3 to 4 mL of Tris buffer (50 mM TRIS-HCl, pH 7.4). The protein content is estimated by the Bradford or Lowry method. The volume of the membrane suspension is adjusted with the membrane buffer (50 mM Tris-HCl containing 0.1% BSA and 0.1 mM PMSF) to give 3.0 mg/mL (or as appropriate) of protein. The membranes are aliquoted and stored at −70° C.
C. Radioligand Binding Assay: […]

T1 sequence (P37288 whole entry): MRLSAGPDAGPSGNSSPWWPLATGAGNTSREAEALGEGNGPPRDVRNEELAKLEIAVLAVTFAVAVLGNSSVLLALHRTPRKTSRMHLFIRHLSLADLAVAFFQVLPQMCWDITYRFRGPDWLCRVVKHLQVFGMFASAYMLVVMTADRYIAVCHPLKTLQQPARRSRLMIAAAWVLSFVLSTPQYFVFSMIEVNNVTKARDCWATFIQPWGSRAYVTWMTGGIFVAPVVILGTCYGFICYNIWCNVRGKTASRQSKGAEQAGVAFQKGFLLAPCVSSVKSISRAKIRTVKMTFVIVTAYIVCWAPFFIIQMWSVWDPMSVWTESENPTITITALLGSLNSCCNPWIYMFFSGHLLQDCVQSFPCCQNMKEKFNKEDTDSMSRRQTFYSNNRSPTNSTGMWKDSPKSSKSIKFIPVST

A word on the IC50: it is the midpoint of a concentration-inhibition curve. Turning to `COC[C@@H](OC)[C@@H](OC)[C@H](OC)[C@H](CN(C)C(=O)c1ccc2n1Cc1ccccc1N(C(=O)c1ccc(C3=CCCCC3)c(C)c1)C2)OC` [Example 8, 10-(4-Cyclohex-1-en-1-yl-3-methylbenzoyl)-N-methyl-N-[(2S,3R,4R,5R)-2,3,4,5,6-pentamethoxyhexyl]-10,11-dihydro-5H-pyrrolo[2,1-c][1,4]benzodiazepine-3-carboxamide], the IC50 (value in parentheses) was found to be 0.315 µM. As to `Cc1cc(C(=O)N2Cc3ccc(C(=O)N[C@@H](Cc4ccc(O)cc4)C(=O)O)n3Cc3ccccc32)ccc1C1=CCCCC1` [Example 10], the “V1a % inhibition @ 100 nM” value (100 nM, value without parentheses) is listed as 14%.
